According to ChEMBL document CHEMBL1201862, “PubChem BioAssay data set” (2004):
“And” between values parts separate entries of the source, which are not always exact repeats. Equal entries are not always repeated. Structures can show the parent of a compound that is named as a salt. The source made the active and inactive calls.

Tests used:
[1] = target: Voltage-gated inwardly rectifying potassium channel KCNH2 (Homo sapiens, UniProt Q12809); conditions: Potency;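 further: confirmatory quantitative high-throughput screen measuring inhibition of hERG channel activity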
Sequence of Voltage-gated inwardly rectifying potassium channel KCNH2 (Q12809 whole entry): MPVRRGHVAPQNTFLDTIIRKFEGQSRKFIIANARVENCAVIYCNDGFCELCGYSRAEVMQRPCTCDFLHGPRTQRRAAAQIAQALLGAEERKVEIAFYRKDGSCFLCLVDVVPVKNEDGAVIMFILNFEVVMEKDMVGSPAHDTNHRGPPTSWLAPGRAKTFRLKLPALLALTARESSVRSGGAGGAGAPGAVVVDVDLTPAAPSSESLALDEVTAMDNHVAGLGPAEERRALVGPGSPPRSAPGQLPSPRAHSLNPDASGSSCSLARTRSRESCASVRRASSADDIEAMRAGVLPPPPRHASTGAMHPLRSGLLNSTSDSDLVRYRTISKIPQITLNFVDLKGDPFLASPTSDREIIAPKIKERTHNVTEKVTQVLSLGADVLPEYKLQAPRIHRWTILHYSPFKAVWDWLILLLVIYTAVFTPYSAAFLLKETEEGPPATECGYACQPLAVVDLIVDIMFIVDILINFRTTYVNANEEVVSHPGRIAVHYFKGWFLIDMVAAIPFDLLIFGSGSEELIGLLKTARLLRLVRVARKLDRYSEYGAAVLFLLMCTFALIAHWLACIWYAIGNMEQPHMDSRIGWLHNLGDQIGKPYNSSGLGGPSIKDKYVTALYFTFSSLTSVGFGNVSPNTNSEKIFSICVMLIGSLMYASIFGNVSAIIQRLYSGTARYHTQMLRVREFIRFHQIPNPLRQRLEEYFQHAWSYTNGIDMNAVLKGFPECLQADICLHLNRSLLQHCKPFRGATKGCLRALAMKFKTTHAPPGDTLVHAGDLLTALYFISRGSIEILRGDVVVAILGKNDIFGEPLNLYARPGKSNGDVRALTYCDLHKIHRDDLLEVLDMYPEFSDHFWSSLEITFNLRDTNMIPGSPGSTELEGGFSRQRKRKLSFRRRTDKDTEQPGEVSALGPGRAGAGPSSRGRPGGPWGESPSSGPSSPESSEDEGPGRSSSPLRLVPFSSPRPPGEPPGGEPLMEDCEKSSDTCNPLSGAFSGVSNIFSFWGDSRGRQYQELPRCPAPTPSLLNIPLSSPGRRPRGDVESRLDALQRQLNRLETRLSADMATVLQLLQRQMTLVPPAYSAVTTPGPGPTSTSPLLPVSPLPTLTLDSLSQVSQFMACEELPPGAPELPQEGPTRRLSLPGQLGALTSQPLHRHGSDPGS

[2] = target: T1, Cytochrome P450 2C9 (Homo sapiens, UniProt P11712)
T1 sequence (P11712 whole entry): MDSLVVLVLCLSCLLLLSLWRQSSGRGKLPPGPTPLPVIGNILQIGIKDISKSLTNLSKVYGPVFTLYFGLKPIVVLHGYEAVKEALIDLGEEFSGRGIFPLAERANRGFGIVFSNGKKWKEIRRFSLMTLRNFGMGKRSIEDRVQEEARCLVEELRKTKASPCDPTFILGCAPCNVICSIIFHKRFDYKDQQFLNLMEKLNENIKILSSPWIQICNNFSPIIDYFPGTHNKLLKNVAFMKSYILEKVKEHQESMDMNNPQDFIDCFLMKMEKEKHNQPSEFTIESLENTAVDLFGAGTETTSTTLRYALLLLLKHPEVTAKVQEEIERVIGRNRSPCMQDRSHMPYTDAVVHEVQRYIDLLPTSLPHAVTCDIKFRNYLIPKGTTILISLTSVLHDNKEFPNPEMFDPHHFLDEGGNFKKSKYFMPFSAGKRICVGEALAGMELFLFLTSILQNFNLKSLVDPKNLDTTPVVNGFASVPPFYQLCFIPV

[3] = target: T1, Cytochrome P450 2C9; remark: listed apart in the source
[4] = target: Cytochrome P450 3A4 (Homo sapiens, UniProt P08684);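 further: CYP3A4 tested as one member of a cytochrome P450 panel screen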
[5] = target: T2, Oxysterols receptor LXR-beta (Homo sapiens, UniProt P55055); assay: LXR agonists, Gal4 luciferase reporter, dose response, counter-screen for ssDAF-12 agonist project, cell-based, luminescence, HEK293, S. stercoralis campaign (AID 720737); assay type: functional; conditions: read-out: IC50 (the source's name)
T2 sequence (P55055 whole entry): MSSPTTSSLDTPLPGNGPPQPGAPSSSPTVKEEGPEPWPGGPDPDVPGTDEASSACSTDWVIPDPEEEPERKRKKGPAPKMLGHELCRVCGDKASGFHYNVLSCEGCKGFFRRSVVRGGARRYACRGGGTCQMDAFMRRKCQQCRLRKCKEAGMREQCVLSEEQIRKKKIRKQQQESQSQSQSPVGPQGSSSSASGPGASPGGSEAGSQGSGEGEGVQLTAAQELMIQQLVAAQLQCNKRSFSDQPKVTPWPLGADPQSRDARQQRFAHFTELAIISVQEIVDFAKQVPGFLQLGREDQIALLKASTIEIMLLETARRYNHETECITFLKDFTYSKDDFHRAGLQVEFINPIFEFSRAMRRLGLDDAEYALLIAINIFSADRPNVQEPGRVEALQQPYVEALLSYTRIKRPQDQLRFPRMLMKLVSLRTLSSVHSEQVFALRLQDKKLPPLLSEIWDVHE

[6] = Luminescence-based cell-based high throughput dose response assay to identify activators of the DAF-12 from the parasite S. stercoralis (ssDAF-12).; assay type: functional
[7] = target: T2, Oxysterols receptor LXR-beta; assay type: functional, cell-based
[8] = cells
[9] = intracellular Trypanosoma cruzi inhibitors in host cells – cell-based, plate reader, cherry-pick samples, set 3, dose response (AID 651818); assay type: functional;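 further: compounds incubated with infected cells for about four days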
[10] = target: T3, Fatty acid synthase (Homo sapiens, UniProt P49327); assay: FAS thioesterase domain inhibitors, dose response, biochemical, kinetic fluorescence intensity (AID 624326); assay type: functional;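 further: rate of fluorescence rise from hydrolysis of a fluorogenic O-methyl fluorescein ester substrate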
T3 sequence (P49327 whole entry, the tested form may be a part): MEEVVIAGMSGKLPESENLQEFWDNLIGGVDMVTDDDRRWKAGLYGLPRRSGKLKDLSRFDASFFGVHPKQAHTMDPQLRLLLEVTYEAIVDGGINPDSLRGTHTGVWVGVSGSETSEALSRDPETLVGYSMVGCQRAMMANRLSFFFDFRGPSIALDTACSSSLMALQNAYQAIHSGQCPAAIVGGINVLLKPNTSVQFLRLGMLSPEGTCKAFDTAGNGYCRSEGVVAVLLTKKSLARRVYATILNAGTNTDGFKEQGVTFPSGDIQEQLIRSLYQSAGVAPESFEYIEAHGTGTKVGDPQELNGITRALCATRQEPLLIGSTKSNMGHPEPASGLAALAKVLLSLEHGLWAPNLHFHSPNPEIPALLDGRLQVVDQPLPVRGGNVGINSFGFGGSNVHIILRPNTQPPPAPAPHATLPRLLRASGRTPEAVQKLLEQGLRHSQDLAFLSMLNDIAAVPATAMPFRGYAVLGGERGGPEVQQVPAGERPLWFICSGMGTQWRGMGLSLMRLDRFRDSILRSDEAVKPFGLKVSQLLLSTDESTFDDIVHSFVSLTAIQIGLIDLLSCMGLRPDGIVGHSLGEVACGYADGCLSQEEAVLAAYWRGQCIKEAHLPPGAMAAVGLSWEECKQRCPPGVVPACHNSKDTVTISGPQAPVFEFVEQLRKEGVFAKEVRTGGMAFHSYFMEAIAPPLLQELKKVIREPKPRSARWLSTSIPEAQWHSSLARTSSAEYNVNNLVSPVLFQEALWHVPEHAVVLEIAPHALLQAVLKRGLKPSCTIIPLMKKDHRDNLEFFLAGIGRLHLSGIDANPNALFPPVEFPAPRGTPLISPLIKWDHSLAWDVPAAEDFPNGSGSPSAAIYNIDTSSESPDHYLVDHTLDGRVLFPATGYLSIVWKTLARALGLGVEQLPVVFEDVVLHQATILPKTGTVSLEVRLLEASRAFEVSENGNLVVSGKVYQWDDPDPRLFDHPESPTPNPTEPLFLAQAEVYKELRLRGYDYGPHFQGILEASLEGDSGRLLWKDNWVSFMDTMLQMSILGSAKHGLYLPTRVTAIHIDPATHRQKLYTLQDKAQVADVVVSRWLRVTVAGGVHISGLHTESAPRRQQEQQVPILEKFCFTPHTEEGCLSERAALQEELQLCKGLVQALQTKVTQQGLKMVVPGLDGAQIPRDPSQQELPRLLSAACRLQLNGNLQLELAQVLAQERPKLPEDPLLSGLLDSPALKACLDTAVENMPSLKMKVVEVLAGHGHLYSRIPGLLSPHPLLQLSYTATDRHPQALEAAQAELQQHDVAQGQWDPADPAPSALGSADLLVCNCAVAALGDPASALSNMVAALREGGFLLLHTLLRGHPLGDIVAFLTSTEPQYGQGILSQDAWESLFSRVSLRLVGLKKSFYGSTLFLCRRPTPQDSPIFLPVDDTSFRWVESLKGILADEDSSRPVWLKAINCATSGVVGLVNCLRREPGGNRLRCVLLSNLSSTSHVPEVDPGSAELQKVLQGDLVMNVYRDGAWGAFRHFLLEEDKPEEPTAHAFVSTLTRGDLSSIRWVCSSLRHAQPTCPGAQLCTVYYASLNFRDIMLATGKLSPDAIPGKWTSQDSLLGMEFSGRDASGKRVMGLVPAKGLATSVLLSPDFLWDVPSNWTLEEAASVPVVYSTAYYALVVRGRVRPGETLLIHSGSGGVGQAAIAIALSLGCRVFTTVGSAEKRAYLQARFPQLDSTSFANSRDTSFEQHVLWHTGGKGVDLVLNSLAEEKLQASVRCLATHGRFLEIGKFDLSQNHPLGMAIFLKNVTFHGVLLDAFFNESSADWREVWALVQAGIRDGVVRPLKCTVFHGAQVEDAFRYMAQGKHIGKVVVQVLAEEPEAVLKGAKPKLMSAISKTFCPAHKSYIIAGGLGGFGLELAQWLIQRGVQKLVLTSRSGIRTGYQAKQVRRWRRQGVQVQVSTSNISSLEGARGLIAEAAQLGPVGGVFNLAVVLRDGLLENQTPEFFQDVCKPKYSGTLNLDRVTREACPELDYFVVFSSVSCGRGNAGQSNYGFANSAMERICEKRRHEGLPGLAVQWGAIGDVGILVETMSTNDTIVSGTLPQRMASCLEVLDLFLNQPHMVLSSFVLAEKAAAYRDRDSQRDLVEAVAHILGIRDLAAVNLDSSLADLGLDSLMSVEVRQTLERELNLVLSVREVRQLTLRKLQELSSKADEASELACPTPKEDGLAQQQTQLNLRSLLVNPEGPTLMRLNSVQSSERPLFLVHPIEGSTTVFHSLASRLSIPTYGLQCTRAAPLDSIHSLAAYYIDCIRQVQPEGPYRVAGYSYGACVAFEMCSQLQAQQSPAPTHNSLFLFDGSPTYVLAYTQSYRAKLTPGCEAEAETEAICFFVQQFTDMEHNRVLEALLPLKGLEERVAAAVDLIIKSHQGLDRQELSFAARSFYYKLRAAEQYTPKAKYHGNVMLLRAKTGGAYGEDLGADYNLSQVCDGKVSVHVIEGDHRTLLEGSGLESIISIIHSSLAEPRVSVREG

[11] = target: T3, Fatty acid synthase; assay: FAS thioesterase domain inhibitors, dose response, biochemical, endpoint fluorescence intensity, uHTS hits (AID 624327); assay type: functional;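 further: fluorescence from hydrolysis of an O-methyl fluorescein acyl ester substrate by the enzyme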
[12] = target: Albumin (Bos taurus, UniProt P02769); assay: Counterscreen for inhibitors of T-cell receptor (TCR)-CD3 interaction: Fluorescence-based biochemical high throughput dose response assay to identify inhibitors of T-cell receptor (TCR)-CD3 interaction using a TAMRA-labeled BSA probe.; assay type: functional
Sequence of Albumin (P02769 whole entry): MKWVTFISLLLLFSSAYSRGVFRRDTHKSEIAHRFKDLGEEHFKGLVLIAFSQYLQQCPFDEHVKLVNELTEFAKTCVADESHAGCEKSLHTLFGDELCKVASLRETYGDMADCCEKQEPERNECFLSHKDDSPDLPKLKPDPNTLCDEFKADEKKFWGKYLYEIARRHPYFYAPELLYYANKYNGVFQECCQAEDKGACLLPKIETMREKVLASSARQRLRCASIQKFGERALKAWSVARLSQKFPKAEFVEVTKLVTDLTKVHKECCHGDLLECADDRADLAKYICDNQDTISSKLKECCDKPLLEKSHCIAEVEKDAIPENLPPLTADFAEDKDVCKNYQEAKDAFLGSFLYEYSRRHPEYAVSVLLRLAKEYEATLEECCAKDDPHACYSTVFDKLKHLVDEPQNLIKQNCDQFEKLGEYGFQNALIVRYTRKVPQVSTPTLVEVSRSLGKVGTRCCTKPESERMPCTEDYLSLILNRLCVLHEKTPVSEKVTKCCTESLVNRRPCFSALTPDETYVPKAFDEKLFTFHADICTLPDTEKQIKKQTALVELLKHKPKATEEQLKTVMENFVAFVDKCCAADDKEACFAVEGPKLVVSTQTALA

[13] = THP-1 cell cytotoxicity, dose response, cytotoxicity control for Vif-APOBEC3G degradation inhibitor project, THP-1 cells (AID 1117359); assay type: functional; conditions: Human immunodeficiency virus 1, THP-1
[14] = target: T4, Heat shock factor protein 1 (Mus musculus, UniProt P38532); assay: HSF1 potentiators in luciferase reporter cells, confirmation, cell-based, NIH3T3, luminescence, dose retest (AID 435004); assay type: functional;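 further: stress induced by proteasome inhibitor MG132 added 30 min after compound; luciferase reporter driven by HSF1 response element in NIH3T3 cells; actives raise luminescence as potentiators of the MG132 stress response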
T4 sequence (P38532 whole entry): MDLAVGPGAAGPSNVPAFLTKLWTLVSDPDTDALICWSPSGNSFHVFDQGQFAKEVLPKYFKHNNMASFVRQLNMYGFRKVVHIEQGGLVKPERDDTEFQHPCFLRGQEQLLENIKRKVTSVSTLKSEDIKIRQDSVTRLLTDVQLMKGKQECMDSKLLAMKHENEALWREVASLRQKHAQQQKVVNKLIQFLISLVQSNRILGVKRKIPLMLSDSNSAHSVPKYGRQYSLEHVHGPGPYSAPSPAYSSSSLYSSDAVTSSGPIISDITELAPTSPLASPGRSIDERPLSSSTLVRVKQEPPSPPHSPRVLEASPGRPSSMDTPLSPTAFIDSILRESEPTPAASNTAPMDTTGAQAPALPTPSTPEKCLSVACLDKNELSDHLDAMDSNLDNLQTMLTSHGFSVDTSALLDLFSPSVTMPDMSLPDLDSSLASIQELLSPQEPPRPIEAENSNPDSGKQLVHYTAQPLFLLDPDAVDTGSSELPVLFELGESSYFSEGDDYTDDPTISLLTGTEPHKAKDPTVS

[15] = target: Glucose-6-phosphate 1-dehydrogenase (Homo sapiens, UniProt P11413); assay: human G6PD enzyme inhibitors, dose response, selectivity assay for P. falciparum G6PD inhibitor project, biochemical, fluorescence (AID 504792); assay type: functional
[16] = inhibitors of intracellular T. cruzi replication, confirmation, NIH3T3 host cells, beta-gal luminescence (AID 2044); assay type: functional, cell-based;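 further: intracellular parasites grown in NIH/3T3 mouse fibroblasts as host cells; luminescent beta-galactosidase reporter signal from transgenic T. cruzi replicating inside host cells; inhibitors lower the luminescence signal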
[17] = control 3'UTR Renilla luciferase suppression, dose response, counter-screen for Shn3 inhibitor project, cell-based, Clone20-Shn3RL, cherry-picked (AID 624133); assay type: functional
[18] = cells; assay type: functional, cell-based
[19] = target: Nonstructural protein 1 (Influenza A virus, UniProt Q194T2); assay type: functional, Influenza A virus (A/California/07/2009(H1N1))
Sequence of Nonstructural protein 1 (Q194T2 whole entry): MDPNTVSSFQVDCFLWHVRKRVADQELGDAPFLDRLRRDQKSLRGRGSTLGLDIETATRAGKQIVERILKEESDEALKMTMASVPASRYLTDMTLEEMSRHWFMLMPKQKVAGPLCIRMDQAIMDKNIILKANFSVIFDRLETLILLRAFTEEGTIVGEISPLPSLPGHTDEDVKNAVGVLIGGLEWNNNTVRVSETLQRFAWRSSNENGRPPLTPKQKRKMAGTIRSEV

[20] = Shn3 3'UTR reporter inhibitors, dose response, cell-based, Clone20 osteoblasts, firefly luciferase, cherry-picked (AID 624132); assay type: functional;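 further: firefly luciferase luminescence from reporter carrying the Shn3 3'UTR in osteoblasts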
[21] = HepG2 cell cytotoxicity, dose response, cytotoxicity control for Shn3 inhibitor project, CellTiter-Glo, cherry-picked (AID 624134); assay type: functional, cell-based
[22] = cells; assay type: functional, cell-based; remark: listed apart in the source
[23] = target: T5, Microphthalmia-associated transcription factor (Homo sapiens, UniProt O75030); assay: TRPM1 promoter luciferase signal decrease, dose response, MITF inhibitor project, cell-based, SK-MEL-5, cherry-picked, set 3 (AID 493073); assay type: functional
T5 sequence (O75030 whole entry): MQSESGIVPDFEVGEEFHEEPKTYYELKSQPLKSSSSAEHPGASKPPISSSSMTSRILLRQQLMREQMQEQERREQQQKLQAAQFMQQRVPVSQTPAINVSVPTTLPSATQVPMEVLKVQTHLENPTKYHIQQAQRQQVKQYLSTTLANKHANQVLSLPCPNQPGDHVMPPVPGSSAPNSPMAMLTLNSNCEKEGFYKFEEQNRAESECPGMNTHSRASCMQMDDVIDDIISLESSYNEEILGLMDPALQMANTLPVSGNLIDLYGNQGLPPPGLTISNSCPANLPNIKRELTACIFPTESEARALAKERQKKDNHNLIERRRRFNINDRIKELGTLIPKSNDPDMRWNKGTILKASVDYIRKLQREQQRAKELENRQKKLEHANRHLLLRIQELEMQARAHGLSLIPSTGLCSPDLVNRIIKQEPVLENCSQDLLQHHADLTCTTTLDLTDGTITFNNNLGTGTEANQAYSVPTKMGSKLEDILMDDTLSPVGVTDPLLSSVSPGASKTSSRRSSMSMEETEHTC

[24] = test system: H9c2; assay: cells; assay type: functional, cell-based; conditions: Rattus norvegicus, H9c2, Myocardium;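 further: confirmatory concentration-response retest of ultra-high-throughput screening hits for modulation of myocardial damage; cell death induced by hydrogen peroxide oxidative stress; compound pretreatment for 60 min then peroxide exposure for 2 h; potency is for protecting the cells against peroxide damage rather than for killing them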
[25] = cytotoxicity toward NIH3T3 fibroblasts, dose response, counter-screen, cell-based, ATP luminescence, mouse fibroblasts (AID 2010); assay type: functional;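 further: cells exposed to compound for about 90 hours before reading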
[26] = test system: INS1; assay: beta cell apoptosis inhibitors, cytokine rescue, dose response, luminescence, retest (AID 449756); assay type: functional, cell-based; conditions: Rattus norvegicus;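 further: cell death triggered by IL-1 beta plus TNF-alpha plus IFN-gamma mixture; protective hits raise ATP signal compared with cytokine alone wells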
[27] = test system: HEK293; assay: inhibitors of LMP1-driven NF-kB reporter, dose response, cell-based, HEK293, luciferase, cherry-pick (AID 588343); assay type: functional; conditions: Homo sapiens
[28] = Luminescence Cell-Based Dose Retest to Confirm Inhibitors of Cancer Stem Cells. [Related pubchem assays (depositor defined):AID2717, AID2721]; assay type: functional; conditions: Homo sapiens
[29] = target: T4, Heat shock factor protein 1; assay: inhibition of MG132-induced HSE-luciferase signal, confirmation, cell-based, NIH3T3, luminescence, dose retest (AID 2382); assay type: functional;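 further: NIH3T3 fibroblasts with HSF1-driven luciferase reporter stressed by proteasome inhibitor MG132; luminescence from HSF1-driven luciferase expression after 8 hours of MG132 stress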
[30] = inhibitors of clade B AD8 Env fusion, dose response, cell-based, cherry-pick (AID 652062); assay type: functional;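 further: luciferase signal from cell-cell fusion driven by HIV-1 clade B AD8 Env; potency is for inhibitors of fusion seen as a drop in luminescence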
[31] = ZM109 Env clade C HIV-1 fusion inhibitors, dose response, HeLa effector, CEM target cells, luciferase, cherry-pick (AID 652058); assay type: functional, cell-based
[32] = inhibitors of HIV Env-driven cell fusion, dose response, cherry-pick (AID 652057); assay type: functional, cell-based

## CC1CCN(CC[C@H]2CCCN2S(=O)(=O)c2cccc(O)c2)CC1
[1]
  AC50: 22.4 µM (inconclusive)

## COc1[nH]c2ccc(F)cc2c1C(=O)OCC1CCN(CCNS(C)(=O)=O)CC1.NS(=O)(=O)O
[1]
  AC50: 35.5 µM (inconclusive)
[2]
  AC50: 39.8 µM (inconclusive)
[3]
  AC50: inconclusive
[4]
  AC50: 12.6 µM (inconclusive) and 31.6 µM (inconclusive)

## CN1C(=O)C(CC(=O)Nc2ccc(F)cc2)N(Cc2cccs2)C1=S (stereo not given)
[5]
  EC50: > 67.5 µM (inactive)
[6]
  IC50: > 67.5 µM (inactive)

## c1ccc(N2CC3COc4ccccc4C3=N2)cc1 (stereo not given)
[7]
  EC50: > 67.4 µM (inactive)
[8]
  EC50: > 67.4 µM (inactive)

## C[C@@H]1CN([C@H](C)CO)C(=O)Cc2cc(NC(=O)C3CCCCC3)ccc2O[C@@H]1CN(C)Cc1ccc(C(=O)Nc2ccccc2N)cc1
[9]
  AC50: 3.51 µM (active)

## Cc1cccc(OCCNC(=O)c2cncc(Br)c2)c1
[5]
  EC50: > 67.5 µM (inactive)
[6]
  IC50: > 67.5 µM (inactive)

## O=C(NC(C(=O)N/N=C/c1cc([N+](=O)[O-])ccc1O)c1nnc(O)c2ccccc12)c1ccccc1 (stereo not given)
[10]
  IC50: 2.55 µM (active)
[11]
  IC50: 2.76 µM (active)
[12]
  IC50: > 94.1 µM (inactive)

## COc1ccccc1C(=O)NNC(=O)c1ccc(NC(=O)CC(C)C)cc1
[12]
  IC50: > 94.1 µM (inactive)

## Cc1oc(-c2ccc(-c3ccccc3)cc2)nc1CN(CCO)C(C)C
[7]
  EC50: > 67.5 µM (inactive)
[8]
  EC50: > 67.5 µM (inactive)

## C=CCN1CCc2cccc3c2[C@H]1Cc1ccc(O)c(O)c1-3
[13]
  CC50: > 40 µM (active)
[1]
  AC50: 11.2 µM (inconclusive)
[14]
  EC50: > 260 µM (inactive)
[15]
  IC50: > 80 µM (inactive)

## O=C(Oc1ccccc1)c1ccccc1O [PHENYL SALICYLATE]
[1]
  AC50: 50.1 µM (inconclusive)

## O=C(Nc1nc(-c2ccccn2)cs1)c1ccccc1-n1cnnn1
[16]
  EC50: 1.93 µM (active)
[17]
  AC50: 2.75 µM (active)
[18]
  EC50: 10.6 µM (active)
[19]
  IC50: 5.44 µM (active)
[20]
  AC50: 1.71 µM (active)
[21]
  AC50: 5.46 µM (active)
[22]
  EC50: 64.3 µM (active)
[23]
  AC50: 6.96 µM (active)
[24]
  IC50: > 79 µM (inactive)
[25]
  EC50: 4.31 µM (active)
[26]
  AC50: 1.3 µM (active)

## Oc1ccc(C=NNC(=S)Nc2ccccc2)nc1
[27]
  AC50: 14.6 µM (active)

## OCCN(CCO)CC(O)COc1ccc(C23CC4CC(CC(C4)C2)C3)cc1 (stereo not given)
[28]
  AC50: 1.05 µM (active)
[29]
  EC50: 3.11 µM (active)
[27]
  AC50: 7.62 µM (active)

## C[C@@H]1CN([C@H](C)CO)C(=O)Cc2cc(NC(=O)Nc3ccc(C(F)(F)F)cc3)ccc2O[C@@H]1CN(C)Cc1ccc(C(=O)Nc2ccccc2N)cc1
[9]
  AC50: 2.41 µM (active)

## O=C(C[C@H]1C[C@H]2c3cc(NC(=O)NC4CCCC4)ccc3O[C@H]2[C@@H](CO)O1)NC1CCCCC1
[30]
  AC50: 1.17 µM (active)
[31]
  AC50: 24.5 µM (active)

## COc1ccc(NC(=O)Nc2ccc3c(c2)CC(=O)N([C@@H](C)CO)C[C@H](C)[C@@H](CN(C)Cc2ccc(C(=O)Nc4ccccc4N)cc2)O3)cc1
[9]
  AC50: 3.65 µM (active)

## C[C@H]1CN([C@@H](C)CO)C(=O)Cc2cc(NC(=O)Nc3cccc4ccccc34)ccc2O[C@H]1CN(C)Cc1ccc(C(F)(F)F)cc1
[9]
  AC50: 5.49 µM (active)

## C[C@@H]1CCCCO[C@H](CN(C)C(=O)Nc2ccc(C(F)(F)F)cc2)[C@@H](C)CN([C@H](C)CO)C(=O)c2cc(NC(=O)Nc3ccccc3)ccc2O1
[9]
  AC50: 2.02 µM (active)

## CN(C)c1ccc(-c2cc3ccccc3c(=O)o2)cc1
[7]
  EC50: > 67.6 µM (inactive)
[8]
  EC50: > 67.6 µM (inactive)

## NCCc1ccc(S(=O)(=O)F)cc1 [4-AMINOETHYLBENZENESULFONYL FLUORIDE HYDROCHLORIDE]
[1]
  AC50: 0.251 µM (inconclusive)

## CO[C@H](CN(C)S(=O)(=O)c1ccc(Cl)cc1)[C@H](C)CN([C@@H](C)CO)S(=O)(=O)c1cccc(Cl)c1
[30]
  AC50: 17.6 µM (active)
[32]
  AC50: 3.31 µM (active)
[31]
  AC50: 3.66 µM (active)

## CCCCN(C(=O)CSc1cc(C)c2ccc(OC)cc2n1)c1c(N)n(Cc2ccccc2)c(=O)[nH]c1=O
[5]
  EC50: > 67.5 µM (inactive)
[6]
  IC50: > 67.5 µM (inactive)

## CC(C)NC1=NN=C(c2cccs2)CS1
[7]
  EC50: > 67.6 µM (inactive)
[8]
  EC50: > 67.6 µM (inactive)

## O=NN(CCO)CCO [N-NITROSODOETHANOLAMINE]
[1]
  AC50: 3.16 µM (inconclusive)
